Test results from ChEMBL document CHEMBL1909046, “DrugMatrix in vitro pharmacology data”.

Key:
[1] = DRUGMATRIX: beta-Lactamase enzyme inhibition (substrate: Nitrocefin); parameters: species or system Bacillus cereus; conditions: Not Active = under 50% inhibition at 10 µM
[2] = biological target: T1, Cysteinyl leukotriene receptor 1 (Homo sapiens, UniProt Q9Y271); type: cell membranes, CHO-K1, Membrane; note: in other assays of this panel Not Active means under 50% inhibition at 10 µM
T1 sequence (Q9Y271 whole entry): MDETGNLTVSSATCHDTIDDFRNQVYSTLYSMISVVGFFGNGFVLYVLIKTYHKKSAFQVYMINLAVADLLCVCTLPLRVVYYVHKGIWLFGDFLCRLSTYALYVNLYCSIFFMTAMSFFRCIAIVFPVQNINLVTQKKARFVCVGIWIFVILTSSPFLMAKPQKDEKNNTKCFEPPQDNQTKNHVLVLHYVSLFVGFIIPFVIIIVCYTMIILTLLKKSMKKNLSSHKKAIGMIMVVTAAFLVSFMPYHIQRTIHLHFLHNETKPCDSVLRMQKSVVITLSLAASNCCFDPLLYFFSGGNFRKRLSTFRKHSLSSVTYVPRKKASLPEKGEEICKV

[3] = biological target: T2, 5-hydroxytryptamine receptor 2C (Homo sapiens, UniProt P28335); assay: DRUGMATRIX: Serotonin (5-Hydroxytryptamine) 5-HT2C radioligand binding (ligand: [3H] Mesulergine); type: cell membranes, CHO-K1, Membrane; conditions: Not Active = under 50% inhibition at 10 µM; for Ki: read-out: Ki
T2 sequence (P28335 whole entry): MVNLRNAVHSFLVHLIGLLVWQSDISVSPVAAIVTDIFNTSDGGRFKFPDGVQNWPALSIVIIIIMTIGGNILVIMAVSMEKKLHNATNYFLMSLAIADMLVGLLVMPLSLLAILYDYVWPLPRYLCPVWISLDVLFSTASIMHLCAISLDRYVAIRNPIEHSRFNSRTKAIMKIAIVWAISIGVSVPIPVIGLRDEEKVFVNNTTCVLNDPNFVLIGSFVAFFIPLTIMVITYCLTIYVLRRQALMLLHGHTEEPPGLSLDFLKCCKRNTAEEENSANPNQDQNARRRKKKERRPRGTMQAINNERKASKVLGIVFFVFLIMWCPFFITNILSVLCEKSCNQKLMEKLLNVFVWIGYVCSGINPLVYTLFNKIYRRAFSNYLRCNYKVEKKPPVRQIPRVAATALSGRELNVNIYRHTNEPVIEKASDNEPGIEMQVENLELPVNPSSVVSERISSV

[4] = DRUGMATRIX: Interleukin IL-1 radioligand binding (ligand: [125I] interleukin 1beta); type: cell membranes, Membrane; conditions: nih3t3; Not Active = under 50% inhibition at 10 µM
[5] = DRUGMATRIX: Calcium Channel Type L, Phenylalkylamine radioligand binding (ligand: [3H] (-)-Desmethoxyverapamil (D-888)); type: cell membranes, Rattus norvegicus, Wistar, Brain, Membrane; conditions: Not Active = under 50% inhibition at 10 µM
[6] = biological target: T3, D(4) dopamine receptor (Homo sapiens, UniProt P21917); assay: DRUGMATRIX: Dopamine D4.2 radioligand binding (ligand: [3H] Spiperone); type: cell membranes, CHO-K1, Membrane; conditions: Not Active = under 50% inhibition at 10 µM; for Ki: read-out: Ki
T3 sequence (P21917 whole entry): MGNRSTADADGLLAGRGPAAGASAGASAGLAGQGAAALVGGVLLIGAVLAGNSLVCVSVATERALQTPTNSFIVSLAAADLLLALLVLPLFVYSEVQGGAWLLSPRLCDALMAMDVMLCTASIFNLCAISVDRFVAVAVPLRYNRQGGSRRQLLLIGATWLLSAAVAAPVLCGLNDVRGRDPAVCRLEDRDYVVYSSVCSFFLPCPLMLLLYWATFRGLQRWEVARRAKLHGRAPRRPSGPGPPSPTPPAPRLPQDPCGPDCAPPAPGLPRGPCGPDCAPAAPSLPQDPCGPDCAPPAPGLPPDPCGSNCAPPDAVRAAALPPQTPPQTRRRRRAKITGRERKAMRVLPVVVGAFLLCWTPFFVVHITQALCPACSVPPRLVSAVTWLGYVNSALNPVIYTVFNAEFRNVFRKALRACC

Row | Compound | IC50 [1] | Ki [1] | IC50 ([2]; cho-k1) | IC50 ([3]; cho-k1) | IC50 [4] | Ki [4] | IC50 ([5]; read-out: IC50) [µM] | Ki ([5]; read-out: Ki) [µM] | IC50 ([6]; cho-k1) | IC50 [5] | Ki [5] | IC50 ([6]; read-out: IC50) [µM] | Ki [6] [µM] | IC50 ([3]; read-out: IC50) [µM] | Ki [3] [µM] | IC50 ([2]; read-out: IC50) [µM] | Ki ([2]; read-out: Ki) [µM]
1 | CC(C)(C)NC(=O)[C@@H]1C[C@@H]2CCCC[C@@H]2CN1C[C@@H](O)[C@H](Cc1ccccc1)NC(=O)[C@H](CC(N)=O)NC(=O)c1ccc2ccccc2n1 | Not Active | Not Active | Not Active | Not Active | Not Active | Not Active | 6.83 | 6.65 | Not Active | – | – | – | – | – | – | – | –
2 | CC(=O)[C@@]1(O)CC[C@H]2[C@@H]3C[C@H](C)C4=CC(=O)CC[C@]4(C)[C@H]3CC[C@@]21C | Not Active | Not Active | Not Active | Not Active | Not Active | Not Active | – | – | Not Active | Not Active | Not Active | – | – | – | – | – | –
3 | N[C@@H](Cc1ccc(N(CCCl)CCCl)cc1)C(=O)O | Not Active | Not Active | Not Active | Not Active | Not Active | Not Active | – | – | Not Active | Not Active | Not Active | – | – | – | – | – | –
4 | CCCCc1oc2ccccc2c1C(=O)c1cc(I)c(OCCN(CC)CC)c(I)c1 [AMIODARONE] | – | – | Not Active | – | – | – | – | – | – | – | – | 17.7 | 6.21 | – | – | – | –
5 | OCCN(CCO)c1nc(N2CCCCC2)c2nc(N(CCO)CCO)nc(N3CCCCC3)c2n1 [DIPYRIDAMOLE] | Not Active | Not Active | Not Active | Not Active | Not Active | Not Active | – | – | Not Active | Not Active | Not Active | – | – | – | – | – | –
6 | Cc1oncc1C(=O)Nc1ccc(C(F)(F)F)cc1 [LEFLUNOMIDE] | Not Active | Not Active | Not Active | Not Active | Not Active | Not Active | – | – | Not Active | Not Active | Not Active | – | – | – | – | – | –
7 | c1ccc([C@H]2CN3CCSC3=N2)cc1 [LEVAMISOLE] | Not Active | Not Active | Not Active | Not Active | Not Active | Not Active | – | – | Not Active | Not Active | Not Active | – | – | – | – | – | –
8 | N[C@@H](Cc1ccc(O)c(O)c1)C(=O)O [LEVODOPA] | Not Active | Not Active | Not Active | Not Active | Not Active | Not Active | – | – | Not Active | Not Active | Not Active | – | – | – | – | – | –
9 | N[C@@H](Cc1cc(I)c(Oc2ccc(O)c(I)c2)c(I)c1)C(=O)O [LIOTHYRONINE] | – | – | Not Active | Not Active | – | – | – | – | Not Active | – | – | – | – | – | – | – | –
10 | O=NN(CCCl)C(=O)NC1CCCCC1 [LOMUSTINE] | Not Active | Not Active | Not Active | Not Active | Not Active | Not Active | – | – | Not Active | Not Active | Not Active | – | – | – | – | – | –
11 | CCOC(=O)N1CCC(=C2c3ccc(Cl)cc3CCc3cccnc32)CC1 [LORATADINE] | Not Active | Not Active | Not Active | Not Active | Not Active | Not Active | – | – | Not Active | Not Active | Not Active | – | – | – | – | – | –
12 | Cn1ccnc1S [METHIMAZOLE] | Not Active | Not Active | Not Active | Not Active | Not Active | Not Active | – | – | Not Active | Not Active | Not Active | – | – | – | – | – | –
13 | CC[C@@H](CO)NC(=O)[C@@H]1C=C2c3cccc4[nH]cc(c34)C[C@H]2N(C)C1 [METHYLERGONOVINE] | Not Active | Not Active | Not Active | – | Not Active | Not Active | – | – | Not Active | Not Active | Not Active | – | – | 0.013 | 0.00656 | – | –
14 | COc1nc(C)nc(Cl)c1NC1=NCCN1 [MOXONIDINE] | Not Active | Not Active | Not Active | Not Active | Not Active | Not Active | – | – | Not Active | Not Active | Not Active | – | – | – | – | – | –
15 | COc1c(C)c2c(c(O)c1C/C=C(\C)CCC(=O)O)C(=O)OC2 [MYCOPHENOLIC ACID] | Not Active | Not Active | Not Active | Not Active | Not Active | Not Active | – | – | Not Active | Not Active | Not Active | – | – | – | – | – | –
16 | O=c1ncn2nc(Sc3ccc(F)cc3F)ccc2c1-c1c(Cl)cccc1Cl [NEFLAMAPIMOD] | Not Active | Not Active | Not Active | Not Active | Not Active | Not Active | – | – | Not Active | Not Active | Not Active | – | – | – | – | – | –
17 | CN1CCN(CCCN2c3ccccc3Sc3ccc(Cl)cc32)CC1 [PROCHLORPERAZINE] | – | – | Not Active | – | – | – | – | – | – | – | – | 2.31 | 0.81 | – | – | – | –
18 | CO[C@H]1/C=C/O[C@@]2(C)Oc3c(C)c(O)c4c(O)c(c(/C=N/N5CCN(C)CC5)c(O)c4c3C2=O)NC(=O)/C(C)=C\C=C\[C@H](C)[C@H](O)[C@@H](C)[C@@H](O)[C@@H](C)[C@H](OC(C)=O)[C@@H]1C [RIFAMPIN] | Not Active | Not Active | Not Active | Not Active | Not Active | Not Active | – | – | Not Active | Not Active | Not Active | – | – | – | – | – | –
19 | Nc1nc2ccc(OC(F)(F)F)cc2s1 [RILUZOLE] | Not Active | Not Active | Not Active | Not Active | Not Active | Not Active | – | – | Not Active | Not Active | Not Active | – | – | – | – | – | –
20 | Cc1nc2n(c(=O)c1CCN1CCC(c3noc4cc(F)ccc34)CC1)CCCC2 [RISPERIDONE] | – | – | Not Active | – | – | – | – | – | Not Active | – | – | – | – | – | – | – | –
21 | C=CCC1(C(C)CCC)C(=O)NC(=O)NC1=O (stereo not given) [SECOBARBITAL] | Not Active | Not Active | Not Active | Not Active | Not Active | Not Active | – | – | Not Active | Not Active | Not Active | – | – | – | – | – | –
22 | C[C@@H]1CN(c2c(F)c(N)c3c(=O)c(C(=O)O)cn(C4CC4)c3c2F)C[C@H](C)N1 [SPARFLOXACIN] | Not Active | Not Active | Not Active | Not Active | Not Active | Not Active | – | – | Not Active | Not Active | Not Active | – | – | – | – | – | –
23 | Cc1noc(NS(=O)(=O)c2ccc(N)cc2)c1C [SULFISOXAZOLE] | Not Active | Not Active | Not Active | Not Active | Not Active | Not Active | – | – | Not Active | Not Active | Not Active | – | – | – | – | – | –
24 | CSc1ccc(/C=C2/C(C)=C(CC(=O)O)c3cc(F)ccc32)cc1 [SULINDAC SULFIDE] | Not Active | Not Active | – | Not Active | Not Active | Not Active | – | – | Not Active | Not Active | Not Active | – | – | – | – | 29.4 | 14.7
25 | Nc1c2c(nc3ccccc13)CCCC2 [TACRINE] | Not Active | Not Active | Not Active | Not Active | Not Active | Not Active | – | – | Not Active | Not Active | Not Active | – | – | – | – | – | –
26 | CC/C(=C(\c1ccccc1)c1ccc(OCCN(C)C)cc1)c1ccccc1 [TAMOXIFEN] | – | – | Not Active | – | – | – | – | – | – | – | – | 11.2 | 3.91 | 0.46 | 0.241 | – | –
27 | CC(C)N1CCN(c2ccc(OCC3COC(Cn4cncn4)(c4ccc(Cl)cc4Cl)O3)cc2)CC1 (stereo not given) [TERCONAZOLE] | Not Active | Not Active | Not Active | – | – | – | 3.46 | 3.36 | Not Active | – | – | – | – | 6.96 | 3.65 | – | –
